Measurements reported in patent US8633245B2, “PAI-1 inhibitor” (Institute of Medicinal Molecular Design, Inc., priority 2008, dated 2014).
pIC50: −log10 of the molar value. Where two headings read alike, the source gives them in different places.

Target: T1, recombinant human PAI-1 (Homo sapiens, UniProt P05121)
T1 construct: purchased Molecular Innovations, Inc
Assay: Test Example 2: human PAI-1 inhibitory activity (tPA fluorogenic substrate, pH 7.4 HEPES buffer)
Format: biochemical
Conditions: for inhibition at 3 µM / inhibition at 1 µM / inhibition at 0.3 µM: read-out: Inhibition Rate of PAI-1 Activity (%)
Procedure: 0.1 M HEPES, 0.1 M NaCl. 1 mM EDTA. 0.1% Polyethylene glycol 8,000 (Hampton Research Corporation),
2 mM Dimethyldecylphoshine oxide [Apo-10] (Fluka Corporation)

[1] = human PAI-1, calculated from the inhibition rates
[2] = human PAI-1, compound concentration 0.1 μM
[3] = human PAI-1, compound concentration 0.3 μM
[4] = human PAI-1, compound concentration 1 μM
[5] = human PAI-1, compound concentration 3 μM
[6] = human PAI-1, compound concentration 10 μM
[7] = human PAI-1, compound concentration 25 μM

T1 sequence (P05121 24-402): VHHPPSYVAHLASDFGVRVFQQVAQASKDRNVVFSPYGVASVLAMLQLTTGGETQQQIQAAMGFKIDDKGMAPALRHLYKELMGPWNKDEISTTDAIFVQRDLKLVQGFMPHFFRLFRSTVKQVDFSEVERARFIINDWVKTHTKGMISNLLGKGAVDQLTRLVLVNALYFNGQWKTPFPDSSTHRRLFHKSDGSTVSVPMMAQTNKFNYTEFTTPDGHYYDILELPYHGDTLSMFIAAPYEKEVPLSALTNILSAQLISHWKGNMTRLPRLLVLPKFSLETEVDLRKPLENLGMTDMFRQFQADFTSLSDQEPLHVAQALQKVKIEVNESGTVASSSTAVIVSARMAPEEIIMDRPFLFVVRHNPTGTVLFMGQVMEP

pIC50 [1] | pIC50 | SMILES | other results
5.84 |  | CC(C)(C)c1ccc(Oc2ccc(-c3ccc(OC(F)(F)F)cc3)cc2OCC(=O)O)cc1 [Compound 328] | Inhibition Rate of PAI-1 Activity (%) [2]: 0%; Inhibition Rate of PAI-1 Activity (%) [3]: 14%; Inhibition Rate of PAI-1 Activity (%) [4]: 30%; Inhibition Rate of PAI-1 Activity (%) [5]: >99%
5.76 |  | CC(C)(C)c1ccc(Oc2ccc(-c3cccc(OC(F)(F)F)c3)cc2OCC(=O)O)cc1 [Compound 329] | 
5.99 |  | CC(C)(C)c1ccc(Oc2cc(-c3ccc(C(F)(F)F)cc3)ccc2OCC(=O)O)cc1 [Compound 330] | 
6.10 |  | CC(C)(C)c1ccc(Oc2cc(-c3cccc(OC(F)(F)F)c3)ccc2OCC(=O)O)cc1 [Compound 331] | 
5.76 |  | CC(C)c1ccc(Oc2cc(-c3ccc(OC(F)(F)F)cc3)ccc2OCC(=O)O)cc1 [Compound 333] | 
5.72 |  | CC(C)(C)c1ccc(Oc2cc(-c3ccc(OC(F)(F)F)cc3)ccc2CC(=O)O)cc1 [Compound 334] | 
5.69 |  | O=C(O)COc1ccc(-c2ccc(OC(F)(F)F)cc2)cc1OCCCCc1ccccc1 [Compound 337] | 
5.71 |  | CC(C)(C)OCCOc1ccc(-c2ccc(OC(F)(F)F)cc2)cc1N(CCCCc1ccccc1)C(=O)C(=O)O [Compound 351] | 
6.13 |  | CCCCCCCOc1ccc(-c2ccc(OC(F)(F)F)cc2)cc1N(CCCCc1ccccc1)C(=O)C(=O)O [Compound 352] | 
6.29 |  | CCCCCCCCOc1ccc(-c2ccc(OC(F)(F)F)cc2)cc1N(CCCCc1ccccc1)C(=O)C(=O)O [Compound 353] | 
6.25 |  | O=C(O)C(=O)N(CCCCc1ccccc1)c1cc(-c2ccc(OC(F)(F)F)cc2)ccc1OCCCCc1ccccc1 [Compound 354] | 
6.19 |  | O=C(O)C(=O)N(CCCCc1ccccc1)c1cc(-c2ccc(OC(F)(F)F)cc2)ccc1OCCCC1CCCC1 [Compound 355] | 
6.05 |  | CCCCCN(C(=O)C(=O)O)c1cc(-c2ccc(OC(F)(F)F)cc2)ccc1OCCCCc1ccccc1 [Compound 358] | 
 | 5.79 | CCCCCOc1ccc(-c2ccc(F)cc2)cc1N(CCCCc1ccccc1)C(=O)C(=O)O [Compound 359] | 
 | 5.80 | CCCCCOc1ccc(-c2ccccc2)cc1N(CCCCc1ccccc1)C(=O)C(=O)O [Compound 360] | 
 | 6.08 | CCCCCOc1ccc(-c2ccc(Cl)cc2)cc1N(CCCCc1ccccc1)C(=O)C(=O)O [Compound 361] | 
 | 6.96 | CCCCCCCCCOc1ccc(-c2ccc(OC(F)(F)F)cc2)cc1N(CCCCc1ccccc1)C(=O)C(=O)O [Compound 364] | 
 | 6.96 | CCCCCCCCCCOc1ccc(-c2ccc(OC(F)(F)F)cc2)cc1N(CCCCc1ccccc1)C(=O)C(=O)O [Compound 365] | 
 | 5.97 | CCCCCOc1ccc(-c2ccc(OC(F)(F)F)cc2)cc1N(CCCCC)C(=O)C(=O)O [Compound 366] | 
 | 6.05 | CCCCCOc1cc(-c2ccc(OC(F)(F)F)cc2)ccc1N(CCCCc1ccccc1)C(=O)C(=O)O [Compound 367] | 

pIC50 [1] | pIC50 | SMILES | other results
 | 6.35 | O=C(O)C(=O)N(CCCCc1ccccc1)c1cc(-c2ccc(OC(F)(F)F)cc2)ccc1OC1CCCCC1 [Compound 368] | 
 | 6.16 | CCC(CC)Oc1ccc(-c2ccc(OC(F)(F)F)cc2)cc1N(CCCCc1ccccc1)C(=O)C(=O)O [Compound 369] | 
 | 6.03 | O=C(O)C(=O)N(CCCCc1ccccc1)c1cc(-c2ccc(OC(F)(F)F)cc2)ccc1N1CCCCC1 [Compound 370] | 
 |  | CCCCCCCOc1ccc(-c2ccc(OC(F)(F)F)cc2)cc1N(CCCCc1ccccc1)C(=O)C(=O)O [Compound 371] | pIC50 (concentration that inhibits 50% of the human PAI-1 activity, calculated from Test Example 2 inhibition rates): 6.16; Inhibition Rate of PAI-1 Activity (%) [2]: 10%; Inhibition Rate of PAI-1 Activity (%) [3]: 17%; Inhibition Rate of PAI-1 Activity (%) [4]: 93%; Inhibition Rate of PAI-1 Activity (%) [5]: 91%
 | 6.34 | CCCCCOc1cc(-c2ccc(OC(F)(F)F)cc2)cc(N(CCCCc2ccccc2)C(=O)C(=O)O)c1OCCCCC [Compound 372] | 
 | 5.80 | CC(C)(C)Oc1ccc(-c2ccc(OC(F)(F)F)cc2)cc1N(CCCCc1ccccc1)C(=O)C(=O)O [Compound 373] | 
 | 6.10 | CCCCCOc1cc(-c2cccc(C)c2)ccc1N(CCCCc1ccccc1)C(=O)C(=O)O [Compound 376] | 
 | 6.32 | CCCCCOc1cc(-c2cccc(C(F)(F)F)c2)ccc1N(CCCCc1ccccc1)C(=O)C(=O)O [Compound 377] | 
 | 6.21 | CCCCCOc1ccc(-c2cccc(C(F)(F)F)c2)cc1N(CCCCc1ccccc1)C(=O)C(=O)O [Compound 378] | 
 | 6.19 | CCCCCOc1ccc(-c2cccc(C)c2)cc1N(CCCCc1ccccc1)C(=O)C(=O)O [Compound 379] | 
 | 6.19 | CCCCCOc1ccc(-c2ccc(OC(F)(F)F)cc2)cc1N(CCCCc1ccc(F)cc1)C(=O)C(=O)O [Compound 382] | 
 | 5.87 | O=C(O)C(=O)N(CCCCc1ccccc1)c1cc(-c2ccc(OC(F)(F)F)cc2)ccc1OCCC(F)(F)F [Compound 383] | 
 | 6.29 | CCCCCOc1ccc(-c2ccc(OC(F)(F)F)cc2)cc1N(CCCCc1ccc(Cl)cc1)C(=O)C(=O)O [Compound 384] | 
 | 6.19 | CCCCCOc1ccc(-c2ccc(C(F)(F)F)cc2)cc1N(CCCCc1ccccc1)C(=O)C(=O)O [Compound 390] | 
 | 6.11 | CCCCCOc1ccc(-c2cccc(OC(F)(F)F)c2)cc1N(CCCCc1ccccc1)C(=O)C(=O)O [Compound 391] | 
 | 6.16 | CCCCCOc1cc(-c2cccc(OC(F)(F)F)c2)ccc1N(CCCCc1ccccc1)C(=O)C(=O)O [Compound 393] | 
 |  | O=C(O)c1cc(-c2ccc(OC(F)(F)F)cc2)ccc1OCc1ccccc1 [Compound 401] | Inhibition Rate of PAI-1 Activity (%) [5]: 15%; Inhibition Rate of PAI-1 Activity (%) [6]: 17%; Inhibition Rate of PAI-1 Activity (%) [7]: 53%
 |  | CCCCOc1ccc(-c2ccc(OC(F)(F)F)cc2)cc1/C=C/C(=O)O [Compound 405] | Inhibition Rate of PAI-1 Activity (%) [4]: 14%; Inhibition Rate of PAI-1 Activity (%) [5]: 63%; Inhibition Rate of PAI-1 Activity (%) [6]: >99%; Inhibition Rate of PAI-1 Activity (%) [7]: 95%
 |  | CCCCOc1ccc(-c2ccc(OC(F)(F)F)cc2)cc1CCC(=O)O [Compound 407] | Inhibition Rate of PAI-1 Activity (%) [4]: 14%; Inhibition Rate of PAI-1 Activity (%) [5]: 41%; Inhibition Rate of PAI-1 Activity (%) [6]: >99%; Inhibition Rate of PAI-1 Activity (%) [7]: 98%
 |  | CC(C)(C)c1ccc(COc2ccc(NS(=O)(=O)c3ccc(OC(F)(F)F)cc3)cc2CCC(=O)O)cc1 [Compound 415] | Inhibition Rate of PAI-1 Activity (%) [4]: 41%; Inhibition Rate of PAI-1 Activity (%) [5]: 98%; Inhibition Rate of PAI-1 Activity (%) [6]: >99%; Inhibition Rate of PAI-1 Activity (%) [7]: >99%

SMILES | pIC50 [1] | pIC50 | other results
CC(C)(C)c1ccc(Oc2cc(-c3cccc(C(F)(F)F)c3)ccc2CCC(=O)O)cc1 [Compound 332] | 5.83 |  | inhibition at 3 µM: > 99%
CC(C)(C)c1cccc(Oc2cc(-c3ccc(OC(F)(F)F)cc3)ccc2/C=C/C(=O)O)c1 [Compound 335] | 6.13 |  | inhibition at 3 µM: > 99%
CC(C)(C)c1cccc(Oc2cc(-c3ccc(OC(F)(F)F)cc3)ccc2CCC(=O)O)c1 [Compound 336] | 5.97 |  | inhibition at 3 µM: > 99%
CCCCCOc1ccc(-c2ccc(OC(F)(F)F)cc2)cc1N(CCCOc1ccccc1)C(=O)C(=O)O [Compound 356] | 6.03 |  | inhibition at 3 µM: > 99%
CCCCCOc1ccc(-c2ccc(OC(F)(F)F)cc2)cc1N(CCCSc1ccccc1)C(=O)C(=O)O [Compound 357] | 6.11 |  | inhibition at 3 µM: > 99%
CCCCCOc1cc(Oc2ccc(OC(F)(F)F)cc2)ccc1N(CCCCc1ccccc1)C(=O)C(=O)O [Compound 362] |  | 6.08 | inhibition at 3 µM: > 99%
CCCCCOc1ccc(Oc2ccc(OC(F)(F)F)cc2)cc1N(CCCCc1ccccc1)C(=O)C(=O)O [Compound 363] |  | 6.08 | inhibition at 3 µM: > 99%
CCCCCOc1ccc(-c2ccc(OC(F)(F)F)cc2)cc1N(CCCCOc1ccccc1)C(=O)C(=O)O [Compound 374] |  | 6.06 | inhibition at 3 µM: > 99%
CCCCCCCCCCCCCCCOc1ccc(-c2ccc(OC(F)(F)F)cc2)cc1N(CCCCc1ccccc1)C(=O)C(=O)O [Compound 375] |  | > 7.00 | inhibition at 1 µM: > 99%
CCCCCCCCCOc1cc(-c2ccc(OC(F)(F)F)cc2)ccc1N(CCCCc1ccccc1)C(=O)C(=O)O [Compound 380] |  | > 7.00 | inhibition at 3 µM: > 99%
O=C(O)C(=O)N(CCCCc1ccccc1)c1cc(-c2ccc(OC(F)(F)F)cc2)ccc1OCCCCC(F)(F)F [Compound 381] |  | 5.98 | inhibition at 3 µM: > 99%
CCCCCCCCCCCCCCCOc1cc(-c2ccc(OC(F)(F)F)cc2)ccc1N(CCCCc1ccccc1)C(=O)C(=O)O [Compound 385] |  | > 7.00 | inhibition at 0.3 µM: > 99%; inhibition at 1 µM: > 99%; inhibition at 3 µM: > 99%
CCCCCCCOc1cc(-c2ccc(OC(F)(F)F)cc2)ccc1N(CCCCc1ccccc1)C(=O)C(=O)O [Compound 386] |  | 6.33 | inhibition at 1 µM: > 99%; inhibition at 3 µM: > 99%
CCCCCCCCCOc1ccc(N(CCCCc2ccccc2)C(=O)C(=O)O)cc1-c1ccc(OC(F)(F)F)cc1 [Compound 387] |  | > 7.00 | inhibition at 0.3 µM: > 99%; inhibition at 1 µM: > 99%; inhibition at 3 µM: > 99%
CCCCCCCCCOc1cc(N(Cc2ccc(C(C)(C)C)cc2)C(=O)C(=O)O)ccc1-c1ccc(OC(F)(F)F)cc1 [Compound 388] |  | > 7.00 | inhibition at 0.3 µM: > 99%; inhibition at 1 µM: > 99%; inhibition at 3 µM: > 99%
CCCCCCCCCOc1cc(N(CCCCc2ccccc2)C(=O)C(=O)O)ccc1-c1ccc(OC(F)(F)F)cc1 [Compound 389] |  | > 7.00 | inhibition at 1 µM: > 99%; inhibition at 3 µM: > 99%
CCCCCOc1cc(-c2ccc(C(F)(F)F)cc2)ccc1N(CCCCc1ccccc1)C(=O)C(=O)O [Compound 392] |  | 6.15 | inhibition at 3 µM: > 99%
CCCCCCCOc1ccc(N(CCCCc2ccccc2)C(=O)C(=O)O)cc1-c1ccc(OC(F)(F)F)cc1 [Compound 394] |  | 6.66 | inhibition at 3 µM: > 99%
